# US10653688B2, “6-(6-membered heteroaryl and aryl)isoquinolin-3-yl carboxamides and preparation and use thereof” (Samumed, LLC, priority 2017, dated 2020)
# Like-named read-outs stand apart in the source and are kept apart here.
# Assays:
# [1] = tested on: Wnt activity (SW480 colon carcinoma cells stably expressing the Sp5-Luc reporter gene); experiment: Wnt activity screening assay (Sp5-Luc reporter gene assay); format: cell-based, human; settings: Homo sapiens; for EC50: 36 to 48 hours; for inhibition at 10 µM: read-out: percent inhibition at 10 μM (given for EC50 >10 μM), 10 μM
# From the text: The screening assay for Wnt activity is described as follows. Reporter cell lines can be generated by stably transducing cancer cell lines (e.g., colon cancer) or primary cells (e.g., IEC-6 intestinal cells) with a lentiviral construct that includes a Wnt-responsive promoter driving expression of the firefly luciferase gene.
# SW480 colon carcinoma cells were transduced with a lentiviral vector expressing luciferase with a human Sp5 promoter consisting of a sequence of eight TCF/LEF binding sites. SW480 cells stably expressing the Sp5-Luc reporter gene and a hygromycin resistance gene were selected by treatment with 150 μg/mL of hygromycin for 7 days. These stably transduced SW480 cells were expanded in cell culture and used for all further screening activities. […] For Sp5-Luc reporter gene assays, the cells were plated at 4,000 cells/well in 384-well plates with a DMEM medium containing 1% fetal bovine serum, and 1% Penicillin-Streptomycin and incubated for 36 to 48 hours at 37° C. and 5% CO2. Following incubation, 15 μl of BriteLite Plus luminescence reagent (Perkin Elmer) was added to each well of the 384-well assay plates. The plates were placed on an orbital shaker for 2 min and then luminescence was quantified using the Envision (Perkin Elmer) plate reader. Readings were normalized to DMSO only treated cells, and normalized activities were utilized for EC50 calculations using the dose-response log (inhibitor) vs. response-variable slope (four parameters) nonlinear regression feature available in GraphPad Prism 5.0 (or Dotmatics).
# [2] = tested on: IL-6 in human peripheral blood mononuclear cells (huPBMCs); experiment: IL-6 inhibition in LPS-stimulated human peripheral blood mononuclear cells (HTRF); format: cell-based; settings: Homo sapiens, PBMC; for EC50: LPS 50 ng/mL, 22 hours, IL-6 HTRF; for inhibition at 10 µM: read-out: percent inhibition at 10 μM (given for EC50 >10 μM), LPS, IL-6, 10 μM
# Description: Human Peripheral Blood Mononuclear Cells:
# Fresh Normal PB MNC (Catalog # PB001, AllCells, Alameda, Calif.) were shipped overnight at 4° C. and resuspended in Roswell Park Memorial Institute (RPMI) 1640 Medium, with GlutaMAX Supplement (Catalog #61870127, ThermoFisher Scientific, Waltham, Mass.) supplemented with 1% Penicillin-Streptomycin (Catalog #15140163, ThermoFisher Scientific, Waltham, Mass.) and 1% fetal bovine serum (FBS) (Catalog #16140089, ThermoFisher Scientific, Waltham, Mass.) assay media.
# Fresh normal human peripheral blood mononuclear cells (huPBMCs) were resuspended in 1% FBS-RPMI assay media with 1% Penicillin-Streptomycin 1% to a cell concentration of 1×10e6 cells/mL. […] 50 ng/mL of Lipopolysaccharides from Escherichia coli 0111:B4 (Catalog # L5293-2ML, Sigma-Aldrich, St. Louis, Mo.) was added after 2 hours and cells were incubated for another 22 hours at 37° C.-5% CO2. After 22 hour incubation, a mixture of anti-IL6 XL665 and anti-IL-6 Cryptate diluted in reconstitution buffer (Catalog #62IL6PEC, Cisbio Inc., Bedford, Mass.) was added to each well. Following incubation for 3 hours at room temperature, Homogeneous Time-Resolved Fluorescence (HTRF) was measured using the Envision (Perkin Elmer, Shelton, Conn.) at 665 nm and […]. The ratio of fluorescence at 665 nm to 620 nm was used as a readout for IL-6 quantification. All samples were processed in duplicate. Readings were normalized to DMSO treated cells and normalized activities were utilized for EC50 calculations. EC50 was determined using software generated by Dotmatics Limited (Windhill Bishops Stortford Herts, UK) using the Levenberg-Marquardt 4 parameter fitting procedure with finite different gradients.
# [3] = biological target: recombinant DYRK1A kinase (Homo sapiens (Human), UniProt Q13627); experiment: DYRK1A kinase assay (Ser/Thr 18 peptide Z-lyte, FRET)
# Description: Each compound was dissolved in DMSO as a 10 mM stock and used to prepare compound source plates.
# This is a non-radioactive assay using fluorescence resonance energy transfer (FRET) between coumarin and fluorescein to detect kinase activity which is represented as a ratio of coumarin emission/fluorescein emission.
# The mixture was allowed to incubate with the representative compounds for one hour at room temperature. All reactions were performed in duplicate. Unphosphorylated (“0% Control”) and phosphorylated (“100% control”) forms of Ser/Thr 18 served as control reactions. Additionally, an 11-point dose-response curve of Staurosporine (luM top) was run to serve as a positive compound control.
# After incubation, Development Reagent A was diluted in Development Buffer then added to the reaction and allowed to further incubate for one hour at room temperature.
# Dose-response curves were generated and inhibitory concentration (IC50) values were calculated using non-linear regression curve fit in the Dotmatics' Studies Software (Bishops Stortford, UK).
# [4] = tested on: LL29 cells (primary human fibroblasts derived from IPF patients), α-smooth muscle actin; experiment: Inhibition of fibrotic process: TGF-β1-treated primary human fibroblasts, αSMA staining; format: cell-based; settings: Homo sapiens, Fibroblast; for EC50: 96 h, TGF-β1 20 ng/mL, 4 days, % cells positive for αSMA; for inhibition at 10 µM: read-out: percent inhibition at 10 μM (given for EC50 >10 μM), TGF-β1, αSMA, 10 μM;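 for all read-outs here: controls were TGF-β1-stimulated wells with DMSO vehicle as the positive reference and cells given DMSO alone as the negative reference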
# Description: Representative compounds were screened using primary human fibroblasts (derived from IPF patients) treated with TGF-β1 to determine their ability to inhibit the fibrotic process.
# Human Fibroblast Cell Culture:
# Each compound was dissolved in DMSO as a 10 mM stock and used to prepare compound source plates. […] LL29 cells were plated at 1,500 cells/well in 70 μL/well F12 medium supplemented with 1% Fetal Bovine Serum. […] Wells treated with TGF-β1 and containing DMSO were used as positive control, and cells with only DMSO were negative control. Cells were incubated at 37° C. and 5% CO2 for 4 days. Following incubation for 4 days, SYTOX green nucleic acid stain (Life Technologies [Thermo Fisher Scientific]) was added to the wells at a final concentration of 1 μM and incubated at room temperature for 30 min. Cells were then fixed using 4% formaldehyde (Electron Microscopy Sciences), washed 3 times with PBS followed by blocking and permeabilization using 3% Bovine Serum Albumin (BSA; Sigma) and 0.3% Triton X-100 (Sigma) in PBS.
# [5] = biological target: recombinant GSK3β kinase (Homo sapiens (Human), UniProt P49841); experiment: GSK3β kinase assay (Ser/Thr 09 peptide Z-lyte, FRET); format: biochemical;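 note: FRET read-out as coumarin over fluorescein emission ratio, compounds incubated one hour at room temperature, IC50 from dose-response curve fit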
# [6] = tested on: SW480 colon carcinoma cells; experiment: Cell viability assay (CellTiter-Glo); format: cell-based, human; settings: Homo sapiens; for EC50: 96 h, four days, CellTiter-Glo; for inhibition at 10 µM: read-out: percent inhibition at 10 μM (given for EC50 >10 μM), 10 μM
# Description: SW480 colon carcinoma cells were transduced with a lentiviral vector expressing luciferase with a human Sp5 promoter consisting of a sequence of eight TCF/LEF binding sites. SW480 cells stably expressing the Sp5-Luc reporter gene and a hygromycin resistance gene were selected by treatment with 150 μg/mL of hygromycin for 7 days. These stably transduced SW480 cells were expanded in cell culture and used for all further screening activities.
# For the Cell Viability Assays, the cells were plated at 2,000 cells/well in 384-well plates with a DMEM medium containing 1% fetal bovine serum, and 1% Penicillin-Streptomycin and incubated for […] at 37° C. and 5% CO2. Eight replicates of DMSO-treated cells served as controls and cells treated with compound were performed in duplicate.
# After incubation, 10 μL of CellTiter-Glo (Promega) was added to each well allowed to incubate for approximately 12 minutes. This reagent “results in cell lysis and generation of a luminescent signal proportional to the amount of ATP present. The amount of ATP is directly proportional to the number of cells present in culture, in agreement with previous reports. The CellTiter-Glo Assay generates a “glow-type” luminescent signal, produced by the luciferase reaction (Promega.com)”.
# [7] = DYRK1A kinase, head says EC50, method says IC50, ATP 30 μM
# [8] = GSK3β kinase, head says EC50, method says IC50, ATP 46 μM
# Chain of recombinant GSK3β kinase (P49841 whole entry): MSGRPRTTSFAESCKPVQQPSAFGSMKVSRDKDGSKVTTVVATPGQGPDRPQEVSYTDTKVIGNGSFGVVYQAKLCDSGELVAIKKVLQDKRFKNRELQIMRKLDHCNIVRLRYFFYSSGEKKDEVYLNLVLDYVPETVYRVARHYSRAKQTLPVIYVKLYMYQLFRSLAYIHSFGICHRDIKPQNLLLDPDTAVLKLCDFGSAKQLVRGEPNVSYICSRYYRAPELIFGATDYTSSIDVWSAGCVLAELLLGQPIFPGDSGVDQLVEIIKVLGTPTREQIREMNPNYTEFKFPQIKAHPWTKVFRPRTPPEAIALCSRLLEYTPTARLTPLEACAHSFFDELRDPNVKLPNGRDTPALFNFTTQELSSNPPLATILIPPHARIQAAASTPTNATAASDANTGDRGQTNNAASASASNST
SMILES,EC50 [1],EC50 [2],EC50 [3],EC50 [4],EC50 [5],EC50 [6],inhibition at 10 µM [2],"EC50 [3, 7]","EC50 [5, 8]",inhibition at 10 µM [4],inhibition at 10 µM [6],inhibition at 10 µM [1]
"CN1CCN(c2cc(C(=O)Nc3cc4cc(-c5ccc(N)nc5)ccc4cn3)ccn2)CC1 [Compound 39, N-(6-(6-Aminopyridin-3-yl)isoquinolin-3-yl)-2-(4-methylpiperazin-1-yl) isonicotinamide]",710 nM,3.39 µM,12 nM,2480 nM,> 10 µM,2.71 µM,,,,,,
"CNc1ccc(-c2ccc3cnc(NC(=O)c4ccnc(N5CCN(C)CC5)c4)cc3c2)cn1 [Compound 40, N-(6-(6-(Methylamino)pyridin-3-yl)isoquinolin-3-yl)-2-(4-methylpiperazin-1-yl)isonicotinamide]",4120 nM,> 10 µM,64 nM,1470 nM,> 10 µM,3.37 µM,3.7%,,,,,
"CC(C)Nc1cncc(-c2ccc3cnc(NC(=O)c4cccc(C5CCNCC5)c4)cc3c2)c1 [Compound 41, N-(6-(5-(Isopropylamino)pyridin-3-yl)isoquinolin-3-yl)-3-(piperidin-4-yl) benzamide]",573 nM,1.11 µM,,571 nM,,0.636 µM,,4 nM,> 10 µM,,,
"CC(C)Nc1cncc(-c2ccc3cnc(NC(=O)c4cccc(C5CCN(C)CC5)c4)cc3c2)c1 [Compound 42, N-(6-(5-(Isopropylamino)pyridin-3-yl)isoquinolin-3-yl)-3-(1-methylpiperidin-4-yl)benzamide]",403 nM,1.1 µM,,631 nM,,0.491 µM,,3 nM,> 10 µM,,,
"CC(C)Nc1cncc(-c2ccc3cnc(NC(=O)c4ccnc(N5CCN(C)CC5)c4)cc3c2)c1 [Compound 43, N-(6-(5-(Isopropylamino)pyridin-3-yl)isoquinolin-3-yl)-2-(4-methylpiperazin-1-yl)isonicotinamide]",275 nM,2.06 µM,,217 nM,,0.467 µM,,2 nM,> 10 µM,,,
"O=C(Nc1cc2cc(-c3cncc(NC4CCNCC4)c3)ccc2cn1)c1ccc(F)cc1 [Compound 45, 4-fluoro-N-(6-(5-(piperidin-4-ylamino)pyridin-3-yl)isoquinolin-3-yl) benzamide]",698 nM,1.13 µM,9 nM,622 nM,> 10 µM,0.865 µM,,,,,,
"CN1CCC(Nc2cncc(-c3ccc4cnc(NC(=O)c5ccc(F)cc5)cc4c3)c2)CC1 [Compound 46, 4-Fluoro-N-(6-(5-((1-methylpiperidin-4-yl)amino)pyridin-3-yl)isoquinolin-3-yl)benzamide]",4410 nM,1.38 µM,,682 nM,,4.25 µM,,3 nM,7.09 µM,,,
"CN1CCN(c2cc(C(=O)Nc3cc4cc(-c5cncc(N(C)C)c5)ccc4cn3)ccn2)CC1 [Compound 48, N-(6-(5-(Dimethylamino)pyridin-3-yl)isoquinolin-3-yl)-2-(4-methylpiperazin-1-yl)isonicotinamide]",2320 nM,9.68 µM,40 nM,4880 nM,> 10 µM,6.56 µM,,,,,,
"CN1CCN(c2cc(C(=O)Nc3cc4cc(-c5ccc(N(C)C)nc5)ccc4cn3)ccn2)CC1 [Compound 49, N-(6-(6-(Dimethylamino)pyridin-3-yl)isoquinolin-3-yl)-2-(4-methylpiperazin-1-yl)isonicotinamide]",> 10000 nM,> 10 µM,,> 10000 nM,,> 10 µM,0%,904 nM,> 10 µM,33.5%,37.1%,
"O=C(Nc1cc2cc(-c3cncc(CN4CCCC4)c3)ccc2cn1)c1ccc(F)cc1 [Compound 52, 4-Fluoro-N-(6-(5-(pyrrolidin-1-ylmethyl)pyridin-3-yl)isoquinolin-3-yl) benzamide]",> 10000 nM,> 10 µM,,> 10000 nM,,6.92 µM,17.6%,12 nM,> 10 µM,37.1%,,17.7%
"O=C(Nc1cc2cc(-c3cncc(CN4CCC(O)CC4)c3)ccc2cn1)c1ccc(F)cc1 [Compound 54, 4-Fluoro-N-(6-(5-((4-hydroxypiperidin-1-yl)methyl)pyridin-3-yl)isoquinolin-3-yl)benzamide]",382 nM,> 10 µM,3 nM,> 10000 nM,> 10 µM,0.647 µM,17.9%,,,11.2%,,
"CNC(=O)c1cncc(-c2ccc3cnc(NC(=O)c4ccnc(N5CCN(C)CC5)c4)cc3c2)c1 [Compound 59, N-methyl-5-(3-(2-(4-methylpiperazin-1-yl)isonicotinamido)isoquinolin-6-yl)nicotinamide]",866 nM,> 10 µM,,705 nM,,2.32 µM,4.7%,6 nM,> 10 µM,,,
"Cc1ncc(-c2ccc3cnc(NC(=O)c4ccnc(N5CCN(C)CC5)c4)cc3c2)cn1 [Compound 64, 2-(4-Methylpiperazin-1-yl)-N-(6-(2-methylpyrimidin-5-yl)isoquinolin-3-yl)isonicotinamide]",> 10000 nM,> 10 µM,,2000 nM,,8.02 µM,5.7%,158 nM,> 10 µM,,,28.7%
"O=C(CN1CCCC1)Nc1cc2cc(-c3ccnnc3)ccc2cn1 [Compound 68, N-(6-(Pyridazin-4-yl)isoquinolin-3-yl)-2-(pyrrolidin-1-yl)acetamide]",4210 nM,8.77 µM,,3380 nM,,7.91 µM,,328 nM,2.59 µM,,,
"CN1CCC(F)(C(=O)Nc2cc3cc(-c4cnccn4)ccc3cn2)CC1 [Compound 76, 4-Fluoro-1-methyl-N-(6-(pyrazin-2-yl)isoquinolin-3-yl)piperidine-4-carboxamide]",> 10000 nM,> 10 µM,,> 10000 nM,,> 10 µM,1.6%,258 nM,> 10 µM,13.1%,17.5%,15.7%
